Measurements as given in ChEMBL document CHEMBL4321792, “Discovery of 4-Methylquinazoline Based PI3K Inhibitors for the Potential Treatment of Idiopathic Pulmonary Fibrosis” (J Med Chem, 2019).
Active and inactive are the calls of the source. The rule behind the calls is not given here.

How the values were obtained:
[1] = target: PI3-kinase p110-alpha/p85-alpha (Homo sapiens, UniProt P42336); experiment: Inhibition of recombinant human N-terminal FLAG-tagged full-length p110alpha/human p85alpha expressed in Sf9 insect cells using PIP2 as substrate by kinase-glo assay
Sequence of PI3-kinase p110-alpha/p85-alpha (P27986 whole entry): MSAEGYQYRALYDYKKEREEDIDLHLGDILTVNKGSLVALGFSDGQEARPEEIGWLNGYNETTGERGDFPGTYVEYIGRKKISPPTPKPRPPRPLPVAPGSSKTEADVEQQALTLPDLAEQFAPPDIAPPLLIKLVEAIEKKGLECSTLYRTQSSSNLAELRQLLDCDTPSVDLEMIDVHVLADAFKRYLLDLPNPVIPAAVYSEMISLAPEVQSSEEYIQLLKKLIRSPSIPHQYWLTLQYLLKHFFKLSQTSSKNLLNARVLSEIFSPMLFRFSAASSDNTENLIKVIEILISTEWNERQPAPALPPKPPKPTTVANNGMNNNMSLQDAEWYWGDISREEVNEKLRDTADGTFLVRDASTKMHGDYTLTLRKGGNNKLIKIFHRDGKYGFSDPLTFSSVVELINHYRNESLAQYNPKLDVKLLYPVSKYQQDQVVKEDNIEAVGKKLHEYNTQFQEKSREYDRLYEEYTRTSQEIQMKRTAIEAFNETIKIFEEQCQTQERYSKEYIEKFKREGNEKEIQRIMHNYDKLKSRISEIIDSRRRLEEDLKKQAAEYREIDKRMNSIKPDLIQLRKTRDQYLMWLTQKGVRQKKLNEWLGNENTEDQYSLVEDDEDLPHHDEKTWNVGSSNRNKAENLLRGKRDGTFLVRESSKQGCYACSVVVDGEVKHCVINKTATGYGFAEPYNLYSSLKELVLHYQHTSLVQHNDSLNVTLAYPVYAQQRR
Sequence of PI3-kinase p110-alpha/p85-alpha (P42336 whole entry): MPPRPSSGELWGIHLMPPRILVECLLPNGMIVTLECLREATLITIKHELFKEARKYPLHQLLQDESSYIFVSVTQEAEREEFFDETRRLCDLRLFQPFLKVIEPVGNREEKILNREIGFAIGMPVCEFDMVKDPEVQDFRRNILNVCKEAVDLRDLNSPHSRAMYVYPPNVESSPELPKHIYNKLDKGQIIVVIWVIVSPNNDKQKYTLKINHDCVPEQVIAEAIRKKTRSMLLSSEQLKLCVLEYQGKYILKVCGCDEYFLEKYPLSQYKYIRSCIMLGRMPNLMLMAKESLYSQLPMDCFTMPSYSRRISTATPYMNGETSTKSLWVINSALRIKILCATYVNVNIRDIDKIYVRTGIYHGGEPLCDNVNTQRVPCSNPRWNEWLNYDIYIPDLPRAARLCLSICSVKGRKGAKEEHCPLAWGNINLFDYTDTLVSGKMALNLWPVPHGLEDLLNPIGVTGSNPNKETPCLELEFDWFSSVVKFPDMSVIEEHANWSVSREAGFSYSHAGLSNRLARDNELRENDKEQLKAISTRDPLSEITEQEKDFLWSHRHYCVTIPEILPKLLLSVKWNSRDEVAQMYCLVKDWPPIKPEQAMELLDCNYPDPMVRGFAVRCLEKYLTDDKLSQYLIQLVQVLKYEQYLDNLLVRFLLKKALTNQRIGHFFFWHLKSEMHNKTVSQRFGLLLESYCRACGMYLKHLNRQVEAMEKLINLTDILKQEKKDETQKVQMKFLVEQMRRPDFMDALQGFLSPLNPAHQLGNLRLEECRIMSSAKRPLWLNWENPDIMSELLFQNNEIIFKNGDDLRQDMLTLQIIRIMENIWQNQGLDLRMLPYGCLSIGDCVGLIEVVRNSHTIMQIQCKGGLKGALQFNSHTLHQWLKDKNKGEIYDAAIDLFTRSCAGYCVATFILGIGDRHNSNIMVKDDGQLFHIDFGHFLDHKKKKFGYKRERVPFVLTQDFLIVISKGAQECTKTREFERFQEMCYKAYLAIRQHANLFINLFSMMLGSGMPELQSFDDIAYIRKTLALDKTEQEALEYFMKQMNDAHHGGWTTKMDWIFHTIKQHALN

[2] = AUC (0 to infinity) in ICR mouse at 5 mg/kg, po by LC-MS/SM analysis; type: ADME, organism-based; set-up: dose 5 mg/kg, route oral, time infinity; settings: in vivo
[3] = Volume of distribution at steady state in ICR mouse at 0.5 mg/kg, iv by LC-MS/SM analysis; type: ADME, organism-based; settings: in vivo, read-out: Vdss
Mus musculus [4] = experiment: Antifibrotic activity in bleomycin-induced C57BL/6 mouse model of pulmonary fibrosis assessed as reduction in lung hydroxyproline level at 1 mg/kg, po administered once daily for 18 days starting from 10 days post-bleomycin challenge and measured post last dose; type: functional, organism-based
[5] = Half life in ICR mouse at 0.5 mg/kg, iv by LC-MS/SM analysis; type: ADME, organism-based; settings: in vivo
[6] = Half life in ICR mouse at 5 mg/kg, po by LC-MS/SM analysis; type: ADME, organism-based; settings: in vivo
[7] = target: PI3-kinase p110-delta/p85-alpha (Homo sapiens, UniProt O00329); experiment: Inhibition of recombinant human N-terminal GST-tagged full-length p110delta/human p85alpha expressed in Sf9 insect cells using PIP2 as substrate by ADP-glo assay
Sequence of PI3-kinase p110-delta/p85-alpha (P27986 whole entry): as the sequence (P27986 whole entry) above
Sequence of PI3-kinase p110-delta/p85-alpha (O00329 whole entry): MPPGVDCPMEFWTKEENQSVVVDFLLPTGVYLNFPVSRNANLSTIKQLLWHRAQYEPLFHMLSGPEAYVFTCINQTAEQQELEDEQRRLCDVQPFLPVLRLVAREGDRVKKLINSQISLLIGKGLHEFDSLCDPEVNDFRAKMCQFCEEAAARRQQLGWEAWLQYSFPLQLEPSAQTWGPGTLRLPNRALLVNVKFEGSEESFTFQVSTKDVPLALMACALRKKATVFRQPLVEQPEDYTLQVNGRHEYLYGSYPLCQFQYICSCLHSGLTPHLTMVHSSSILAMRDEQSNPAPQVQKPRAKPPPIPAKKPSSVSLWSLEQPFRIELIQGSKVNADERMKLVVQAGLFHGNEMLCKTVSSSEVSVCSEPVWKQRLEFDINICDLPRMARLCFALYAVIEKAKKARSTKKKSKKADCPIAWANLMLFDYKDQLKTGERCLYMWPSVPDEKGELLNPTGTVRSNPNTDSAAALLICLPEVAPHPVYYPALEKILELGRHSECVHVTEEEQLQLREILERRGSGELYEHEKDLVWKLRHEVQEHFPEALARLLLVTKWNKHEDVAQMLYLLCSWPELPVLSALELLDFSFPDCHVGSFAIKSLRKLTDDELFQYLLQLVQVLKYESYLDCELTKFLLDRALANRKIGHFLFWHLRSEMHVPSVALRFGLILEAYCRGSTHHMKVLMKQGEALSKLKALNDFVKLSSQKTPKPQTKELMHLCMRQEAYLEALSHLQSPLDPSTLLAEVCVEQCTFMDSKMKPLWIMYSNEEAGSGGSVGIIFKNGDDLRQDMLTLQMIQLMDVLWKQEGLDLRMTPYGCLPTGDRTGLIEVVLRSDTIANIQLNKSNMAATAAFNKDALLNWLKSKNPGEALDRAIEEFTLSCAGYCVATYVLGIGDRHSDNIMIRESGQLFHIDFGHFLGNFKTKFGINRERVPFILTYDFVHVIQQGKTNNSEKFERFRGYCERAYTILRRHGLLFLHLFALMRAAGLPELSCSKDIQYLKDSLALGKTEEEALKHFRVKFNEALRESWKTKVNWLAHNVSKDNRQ

[8] = Apparent permeability across basolateral to apical side in human Caco2 cells measured after 90 mins by LC-MS/MS analysis; settings: Caco-2
[9] = Clearance in ICR mouse at 0.5 mg/kg, iv by LC-MS/SM analysis; type: ADME, organism-based; settings: in vivo
Mus musculus [10] = experiment: Antifibrotic activity in bleomycin-induced C57BL/6 mouse model of pulmonary fibrosis assessed as reduction in inspiratory capacity at 1 mg/kg, po administered once daily for 18 days starting from 10 days post-bleomycin challenge and measured post last dose; type: functional, organism-based
[11] = Dose normalized AUC in ICR mouse at 5 mg/kg, po by LC-MS/SM analysis; type: ADME, organism-based; settings: in vivo
Mus musculus [12] = experiment: Antifibrotic activity in bleomycin-induced C57BL/6 mouse model of pulmonary fibrosis assessed as reduction in lung fibronectin level at 1 mg/kg, po administered once daily for 18 days starting from 10 days post-bleomycin challenge and measured post last dose by Western blot analysis; type: functional, organism-based
Mus musculus [13] = experiment: Antifibrotic activity in bleomycin-induced C57BL/6 mouse model of pulmonary fibrosis assessed as reduction in collagen fiber deposition at 1 mg/kg, po administered once daily for 18 days starting from 10 days post-bleomycin challenge and measured post last dose by Masson staining-based histopathological analysis; type: functional, organism-based
Mus musculus [14] = experiment: Antifibrotic activity in bleomycin-induced C57BL/6 mouse model of pulmonary fibrosis assessed as reduction in lung damage at 1 mg/kg, po administered once daily for 18 days starting from 10 days post-bleomycin challenge and measured post last dose by H and E staining-based histopathological analysis; type: functional, organism-based
Mus musculus [15] = experiment: Antifibrotic activity in bleomycin-induced C57BL/6 mouse model of pulmonary fibrosis assessed as reduction in respiratory system elastance at 1 mg/kg, po administered once daily for 18 days starting from 10 days post-bleomycin challenge and measured post last dose; type: functional, organism-based
[16] = Antifibrotic activity against mouse Mlg2908 cells assessed as reduction in cell viability measured after 72 hrs by MTT assay; type: functional, cell-based
[17] = target: T1, Phosphatidylinositol 4,5-bisphosphate 3-kinase catalytic subunit gamma isoform (Homo sapiens, UniProt P48736); experiment: Binding affinity to wild-type human partial length PIK3CG (S144 to A1102 residues) expressed in mammalian expression system assessed as residual binding level at 1 uM by kinomescan assay relative to control
Mus musculus [18] = species on record: Mus musculus; experiment: Inhibition of class 1 PI3K in mouse Mlg2908 cells assessed as reduction in AKT phosphorylation at T308 residue measured after 3 hrs by Western blot analysis; type: cell-based
[19] = target: Phosphatidylinositol 4-phosphate 3-kinase C2 domain-containing subunit beta (Homo sapiens) (UniProt O00750); experiment: Binding affinity to wild-type human partial length PIK3C2B (M1 to L1634 residues) expressed in mammalian expression system assessed as residual binding level at 1 uM by kinomescan assay relative to control
Mus musculus [20] = species on record: Mus musculus; experiment: Inhibition of class 1 PI3K in mouse Mlg2908 cells assessed as reduction in AKT phosphorylation at S473 residue measured after 3 hrs by Western blot analysis; type: cell-based
Mus musculus [21] = experiment: Antifibrotic activity in bleomycin-induced C57BL/6 mouse model of pulmonary fibrosis assessed as reduction in respiratory system resistance at 1 mg/kg, po administered once daily for 18 days starting from 10 days post-bleomycin challenge and measured post last dose; type: functional, organism-based
Mus musculus [22] = species on record: Mus musculus; experiment: Inhibition of class 1 PI3K in mouse Mlg2908 cells assessed as reduction in p70S6K phosphorylation measured after 3 hrs by Western blot analysis; type: cell-based
Mus musculus [23] = species on record: Mus musculus; experiment: Inhibition of class 1 PI3K in mouse Mlg2908 cells assessed as reduction in S6RP phosphorylation measured after 3 hrs by Western blot analysis; type: cell-based
[24] = target: T1, Phosphatidylinositol 4,5-bisphosphate 3-kinase catalytic subunit gamma isoform; experiment: Inhibition of recombinant human N-terminal His-tagged full-length p120gamma expressed in Sf9 insect cells using PIP2 as substrate by ADP-glo assay
Target sequence in this assay (P48736 whole entry, the tested form may be a part, canonical isoform): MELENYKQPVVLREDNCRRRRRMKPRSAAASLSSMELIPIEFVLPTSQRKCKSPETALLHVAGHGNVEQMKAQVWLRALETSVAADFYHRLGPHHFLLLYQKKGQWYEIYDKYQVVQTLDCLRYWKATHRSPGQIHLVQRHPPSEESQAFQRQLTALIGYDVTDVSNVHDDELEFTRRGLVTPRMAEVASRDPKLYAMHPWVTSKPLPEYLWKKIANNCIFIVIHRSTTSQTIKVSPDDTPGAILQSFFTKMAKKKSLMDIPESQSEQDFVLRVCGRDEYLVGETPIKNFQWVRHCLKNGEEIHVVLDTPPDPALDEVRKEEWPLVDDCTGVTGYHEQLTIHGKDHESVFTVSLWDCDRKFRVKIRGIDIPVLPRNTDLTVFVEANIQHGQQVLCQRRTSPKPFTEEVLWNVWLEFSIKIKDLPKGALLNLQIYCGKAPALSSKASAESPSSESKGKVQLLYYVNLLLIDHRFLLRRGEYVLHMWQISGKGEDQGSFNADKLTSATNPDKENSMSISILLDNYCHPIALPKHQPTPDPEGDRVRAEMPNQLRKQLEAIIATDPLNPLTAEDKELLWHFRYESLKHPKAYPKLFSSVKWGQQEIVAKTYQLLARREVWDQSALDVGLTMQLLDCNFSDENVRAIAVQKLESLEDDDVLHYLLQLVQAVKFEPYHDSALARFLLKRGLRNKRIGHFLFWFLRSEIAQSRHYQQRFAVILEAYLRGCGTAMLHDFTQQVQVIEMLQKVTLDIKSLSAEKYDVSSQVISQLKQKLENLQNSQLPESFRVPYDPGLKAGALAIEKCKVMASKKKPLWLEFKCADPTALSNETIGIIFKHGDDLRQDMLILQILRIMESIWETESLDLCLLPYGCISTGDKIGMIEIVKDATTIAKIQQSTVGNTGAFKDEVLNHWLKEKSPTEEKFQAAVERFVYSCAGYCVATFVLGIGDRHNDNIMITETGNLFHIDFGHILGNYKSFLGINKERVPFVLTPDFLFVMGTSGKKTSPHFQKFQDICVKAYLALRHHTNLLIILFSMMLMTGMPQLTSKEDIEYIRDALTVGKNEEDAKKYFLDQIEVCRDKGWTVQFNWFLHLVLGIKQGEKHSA

[25] = Toxicity in po dosed C57BL/6 mouse administered as single dose via gavage measured up to 7 days; type: organism-based; settings: in vivo
[26] = Therapeutic index, ratio of MTD in po dosed C57BL/6 mouse to compound effect for antifibrotic activity in bleomycin-induced C57BL/6 mouse model of pulmonary fibrosis; type: toxicity, organism-based; settings: in vivo, read-out: TI
[27] = Apparent permeability across apical to basolateral side in human Caco2 cells measured after 90 mins by LC-MS/MS analysis; settings: Caco-2
[28] = Toxicity in po dosed C57BL/6 mouse administered once daily via gavage for 7 days measured post-last dose; type: organism-based; settings: in vivo
Mus musculus [29] = experiment: Antifibrotic activity in bleomycin-induced C57BL/6 mouse model of pulmonary fibrosis assessed as reduction in lung alpha-SMA level at 1 mg/kg, po administered once daily for 18 days starting from 10 days post-bleomycin challenge and measured post last dose by immunostaining-based histopathological analysis; type: functional, organism-based
[30] = target: Phosphatidylinositol 4,5-bisphosphate 3-kinase catalytic subunit alpha isoform (Homo sapiens) (UniProt P42336); experiment: Binding affinity to wild-type human partial length PIK3CA (R108 to N1068 residues) expressed in mammalian expression system assessed as residual binding level at 1 uM by kinomescan assay relative to control
[31] = Oral bioavailability in ICR mouse at 5 mg/kg by LC-MS/SM analysis; type: ADME, organism-based; settings: in vivo
[32] = Cmax in ICR mouse at 5 mg/kg, po by LC-MS/SM analysis; type: ADME, organism-based; set-up: dose 5 mg/kg, route oral; settings: in vivo
Mus musculus [33] = experiment: Antifibrotic activity in bleomycin-induced C57BL/6 mouse model of pulmonary fibrosis assessed as reduction in lung index at 1 mg/kg, po administered once daily for 18 days starting from 10 days post-bleomycin challenge and measured post last dose; type: functional, organism-based
PI3K p110 beta/p85 alpha = PI3K p110 beta/p85 alpha (Homo sapiens, UniProt P42338); experiment: Inhibition of recombinant human N-terminal FLAG-tagged full-length p110beta/human p85alpha expressed in Sf9 insect cells using PIP2 as substrate by ADP-glo assay
Sequence of PI3K p110 beta/p85 alpha (P27986 whole entry): as the sequence (P27986 whole entry) above
Sequence of PI3K p110 beta/p85 alpha (P42338 whole entry): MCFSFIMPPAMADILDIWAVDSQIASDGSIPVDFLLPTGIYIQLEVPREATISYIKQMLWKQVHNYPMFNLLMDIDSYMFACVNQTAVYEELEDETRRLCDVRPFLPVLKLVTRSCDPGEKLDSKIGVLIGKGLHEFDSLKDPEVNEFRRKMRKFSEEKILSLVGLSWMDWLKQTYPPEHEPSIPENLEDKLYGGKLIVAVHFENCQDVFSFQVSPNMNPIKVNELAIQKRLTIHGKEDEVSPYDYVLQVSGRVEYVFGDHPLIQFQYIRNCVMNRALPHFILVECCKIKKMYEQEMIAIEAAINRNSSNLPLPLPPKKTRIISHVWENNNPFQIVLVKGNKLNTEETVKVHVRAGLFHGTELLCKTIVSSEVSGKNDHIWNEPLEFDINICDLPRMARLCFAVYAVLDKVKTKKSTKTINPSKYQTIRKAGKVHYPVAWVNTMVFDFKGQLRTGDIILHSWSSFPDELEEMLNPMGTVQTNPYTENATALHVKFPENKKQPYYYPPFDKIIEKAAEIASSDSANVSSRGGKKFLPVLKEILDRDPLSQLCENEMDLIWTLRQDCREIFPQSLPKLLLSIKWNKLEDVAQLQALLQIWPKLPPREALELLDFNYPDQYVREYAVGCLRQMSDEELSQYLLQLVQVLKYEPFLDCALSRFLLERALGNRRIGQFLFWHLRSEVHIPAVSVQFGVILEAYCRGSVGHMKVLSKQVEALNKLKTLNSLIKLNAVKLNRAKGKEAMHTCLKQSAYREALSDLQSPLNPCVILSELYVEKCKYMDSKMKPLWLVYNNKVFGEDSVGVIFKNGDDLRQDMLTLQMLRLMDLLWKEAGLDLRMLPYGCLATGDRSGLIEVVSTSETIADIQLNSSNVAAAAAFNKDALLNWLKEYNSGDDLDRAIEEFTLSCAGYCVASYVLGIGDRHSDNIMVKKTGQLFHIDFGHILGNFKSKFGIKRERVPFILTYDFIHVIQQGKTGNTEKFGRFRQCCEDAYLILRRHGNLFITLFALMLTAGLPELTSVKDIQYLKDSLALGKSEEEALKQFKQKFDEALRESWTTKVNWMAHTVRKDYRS

Mus musculus [34] = experiment: Antifibrotic activity in bleomycin-induced C57BL/6 mouse model of pulmonary fibrosis assessed as reduction in respiratory system compliance at 1 mg/kg, po administered once daily for 18 days starting from 10 days post-bleomycin challenge and measured post last dose; type: functional, organism-based
[35] = AUC (0 to infinity) in ICR mouse at 0.5 mg/kg, iv by LC-MS/SM analysis; type: ADME, organism-based; set-up: dose 0.5 mg/kg, time infinity, route intravenous; settings: in vivo
[36] = simulated gi fluid, pH 6.5, 1 h
Description: Thermodynamic solubility of the compound in pH 6.5 FaSSIF incubated for 1 hr by LC-MS/MS analysis

[37] = Kinetic solubility of the compound in pH 7.4 incubated for 120 mins by HPLC-MS/MS analysis; settings: buffer, pH 7.4, 2 h
[38] = buffer, pH 7.4, 1 h
Description: Thermodynamic solubility of the compound in pH 7.4 PBS incubated for 1 hr by LC-MS/MS analysis

Compound	IC50 [1] [nM]	AUC(0-inf) [2] [ng·h/mL]	Vd [3] [L/kg]	half-life [5] [h]	half-life [6] [h]	IC50 [7] [nM]	Papp B→A at 1.5 h [8] [×10⁻⁶ cm/s]	clearance [9] [mL/min/kg]	IC50 [16] [nM]	inhibition (Mus musculus [18])	inhibition (Mus musculus [20])	inhibition (Mus musculus [22])	inhibition (Mus musculus [23])	IC50 [24] [nM]	Papp A→B at 1.5 h [27] [×10⁻⁶ cm/s]	bioavailability [31] [%]	Cmax [32] [ng/mL]	IC50 (PI3K p110 beta/p85 alpha) [nM]	AUC(0-inf) [35] [ng·h/mL]	other results
COc1ncc(-c2cc(OCC3(C)COC3)c3ncnc(C)c3c2)cc1NS(=O)(=O)c1ccc(F)cc1F	0.87	3670	0.733	0.66	4.98	1.1	36	12.8	5	Dose-dependent effect	Dose-dependent effect	Dose-dependent effect	Dose-dependent effect	1.6	46	53.1	1220	0.7	651	Activity (Mus musculus [4]): Active; Activity (Mus musculus [10]): Active; AUC/dose [11]: 734 ng·h/mL per mg/kg; Activity (Mus musculus [12]): Active; Activity (Mus musculus [13]): Active; Activity (Mus musculus [14]): Active; Activity (Mus musculus [15]): Active; Activity [17]: 0%; Activity [19]: 0%; Activity (Mus musculus [21]): Active; MTD at 168 h [25]: > 30 mg/kg; selectivity ratio [26]: > 10; MTD at 168 h [28]: > 10 mg/kg; Activity (Mus musculus [29]): Active; Activity [30]: 0%; Activity (Mus musculus [33]): Active; Activity (Mus musculus [34]): Active
COc1ncc(-c2cc(OC3CCOCC3)c3ncnc(C)c3c2)cc1NS(=O)(=O)c1ccc(F)cc1F	0.6	3240	0.368	0.92	5.57	0.52	39	4.58	3	Dose-dependent effect	Dose-dependent effect	Dose-dependent effect	Dose-dependent effect	2.1	42	15.8	1210	0.54	1820	Therm_solubility [36]: Soluble; Kinetic_solubility [37]: Soluble; Therm_solubility [38]: Soluble
